Measurements reported in paper PMC6196238, “Novobiocin, a Newly Found TRPV1 Inhibitor, Attenuates the Expression of TRPV1 in Rat Intestine and Intestinal Epithelial Cell Line IEC-6” (Frontiers in Pharmacology, 2018).
Values belong to the compound of their own block, whether it stands above or below them.

How the values were obtained:
[1] = tested on: rat intestine (jejunum, ileum, colon); assay: Ussing chamber intestinal permeability of CAP; format: in vitro ADME; conditions: for fold-inhibition factor of CAP Papp: vs CAP only
Protocol: NOVO was also prepared in HEPES buffer to yield final concentration at 5, 10, 25, 50, 100, and 200 μM. […] Different portions of the rat intestine were excised and flushed with HEPES buffer, including jejunum (after the first 5 cm of the top of small intestine), ileum (the distal part of small intestine) and colon (proximal to cecal-colonic junction), and incubated in the ice-cold HEPES buffer. Next, 3–4 cm of the intestine was clipped, and the serosa was removed rapidly on an ice-cold glass. The intestinal segments were fixed in the Ussing chamber. Finally, 7 mL of HEPES buffer was added to the receiving side while an equal volume of drug solution to the dosing side. […] All the samples were kept at -20°C till HPLC analysis.
In brief, samples were injected into a C18 column (3.5 μm, 2.1 mm × 100 mm). An aliquot of 20 μL of sample solutions were injected.

[2] = tested on: rat intestine (jejunum, ileum, colon); assay: Ussing chamber intestinal permeability of NOVO; format: in vitro ADME; conditions: jejunum vs ileum and colon; Figure 1
Protocol: The intestinal permeability of CAP in vitro was performed using Ussing chamber. […] NOVO was also prepared in HEPES buffer to yield final concentration at 5, 10, 25, 50, 100, and 200 μM. Animal intestinal segments for the permeability study were prepared in accordance with the experimental method as described previously ([Yodoya et al., 1994]; [Wallon et al., 2005]; [Duan et al., 2013]). Briefly, male SD rats, weighting 240–260 g, were fasted for 18 h before each experiment and anesthetized by injecting 10 % chloral hydrate anesthesia (i.p.). Different portions of the rat intestine were excised and flushed with HEPES buffer, including jejunum (after the first 5 cm of the top of small intestine), ileum (the distal part of small intestine) and colon (proximal to cecal-colonic junction), and incubated in the ice-cold HEPES buffer. Next, 3–4 cm of the intestine was clipped, and the serosa was removed rapidly on an ice-cold glass. The intestinal segments were fixed in the Ussing chamber. Finally, 7 mL of HEPES buffer was added to the receiving side while an equal volume of drug solution to the dosing side. All the chambers were maintained at 37°C by using a warm water-circulating pump and a mixture of 95% O2 and 5% CO2 aerated to ensure the activity of the membrane. […]

[3] = tested on: IEC-6/TRPV1+ cells; assay: CAP accumulation assay; format: cell-based, rat; conditions: for accumulation of CAP after inhibitor added at 60 min: CAP alone 60 min, then SB-705498 or NOVO (5 and 10 μM), at 75 min, Figure 3E
Protocol: The transfected cells were grown to 80% confluence in 12-well plates. […] SB-705498, RR or NOVO was then added to the medium for another 15, 30, and 60 min. […] After incubation, the medium was removed, and cell layers were washed three times with ice-cold PBS and then extracted with Membrane Protein Extraction Kit (Thermo Fisher Scientific Inc, Rockford, IL, United States), according to the manufacturer’s protocol. The cytosolic protein extracts were stored at -80°C until LC-MS/MS analysis.
The plasma samples and protein sample with 100 μL were extracted with 400 μL of methanol involving IS (verapamil 50 ng⋅mL^-1) by vortex-mix for 1 min, ultrasonic extraction for 1 h, and then centrifugation for 30 min at 15000 g. The supernatant was transferred into a borosilicate glass and 2 μL was subjected to LC-MS/MS analysis.
The LC-MS/MS system consisted of Agilent 6460 Triple Quadrupole LC/MS systems via an ESI interface. The samples were separated on an Agilent ZORBAX SB-C18 column (3.5 μm, 2.1 mm × 150 mm) and the column temperature was maintained at 30°C. The mobile phase consisted of acetonitrile and water contains 0.1% formic acid (70:30, v/v). The flow rate was 0.2 mL⋅min^-1. The ion source was an electrospray ionization interface in the positive mode. […] Other parameters were as follows: spray voltage, 4.0 kV; capillary temperature, 350°C; gas flow, 10 L⋅min^-1.

permeability of CAP in the Ussing chamber experiment ([1]; NOVO concentration higher than 100 μM, data not shown): increased
Papp of CAP ([1]; colon, CAP + 5 μM inhibitor): 8.28 ± 2.55 ×10^-6, cm⋅s^-1
fold-inhibition factor of CAP Papp ([1]; colon, CAP + 5 μM inhibitor): 2.41 fold
Papp of CAP ([1]; colon, CAP + 10 μM inhibitor): 6.05 ± 1.85 ×10^-6, cm⋅s^-1
fold-inhibition factor of CAP Papp ([1]; colon, CAP + 10 μM inhibitor): 3.30 fold
Papp of CAP ([1]; colon, CAP + 25 μM inhibitor): 5.65 ± 2.04 ×10^-6, cm⋅s^-1
fold-inhibition factor of CAP Papp ([1]; colon, CAP + 25 μM inhibitor): 3.54 fold
Papp of CAP ([1]; colon, CAP + 50 μM inhibitor): 9.79 ± 2.20 ×10^-6, cm⋅s^-1
fold-inhibition factor of CAP Papp ([1]; colon, CAP + 50 μM inhibitor): 2.04 fold
Papp of CAP ([1]; ileum, CAP + 5 μM inhibitor): 3.40 ± 0.76 ×10^-6, cm⋅s^-1
fold-inhibition factor of CAP Papp ([1]; ileum, CAP + 5 μM inhibitor): 2.17 fold
Papp of CAP ([1]; ileum, CAP + 10 μM inhibitor): 2.17 ± 0.58 ×10^-6, cm⋅s^-1
fold-inhibition factor of CAP Papp ([1]; ileum, CAP + 10 μM inhibitor): 3.40 fold
Papp of CAP ([1]; ileum, CAP + 25 μM inhibitor): 4.02 ± 0.42 ×10^-6, cm⋅s^-1
fold-inhibition factor of CAP Papp ([1]; ileum, CAP + 25 μM inhibitor): 1.83 fold
Papp of CAP ([1]; ileum, CAP + 50 μM inhibitor): 5.23 ± 0.25 ×10^-6, cm⋅s^-1
fold-inhibition factor of CAP Papp ([1]; ileum, CAP + 50 μM inhibitor): 1.41 fold
Papp of CAP ([1]; jejunum, CAP + 5 μM inhibitor): 1.96 ± 0.25 ×10^-6, cm⋅s^-1
fold-inhibition factor of CAP Papp ([1]; jejunum, CAP + 5 μM inhibitor): 1.60 fold
Papp of CAP ([1]; jejunum, CAP + 10 μM inhibitor): 1.36 ± 0.47 ×10^-6, cm⋅s^-1
fold-inhibition factor of CAP Papp ([1]; jejunum, CAP + 10 μM inhibitor): 2.31 fold
Papp of CAP ([1]; jejunum, CAP + 25 μM inhibitor): 1.60 ± 0.38 ×10^-6, cm⋅s^-1
fold-inhibition factor of CAP Papp ([1]; jejunum, CAP + 25 μM inhibitor): 1.97 fold
Papp of CAP ([1]; jejunum, CAP + 50 μM inhibitor): 2.11 ± 0.04 ×10^-6, cm⋅s^-1
fold-inhibition factor of CAP Papp ([1]; jejunum, CAP + 50 μM inhibitor): 1.49 fold
SMILES: CO[C@@H]1[C@@H](OC(N)=O)[C@@H](O)[C@H](Oc2ccc3c(O)c(NC(=O)c4ccc(O)c(CC=C(C)C)c4)c(=O)oc3c2C)OC1(C)C [NOVO, novobiocin]
permeability of NOVO across intestinal segments [2]: much greater in the jejunum than in the ileum and colon
accumulation of CAP after inhibitor added at 60 min [3]: decreased immediately
accumulation of CAP, co-incubation ([3]; CAP in combination with 2.5-10 μM NOVO, vs control, Figure 3C): strong inhibition
accumulation of CAP in cells after 24 h pre-treatment ([3]; NOVO 2.5-10 μM 24 h prior to 25 μM CAP for 60 min, Figure 3B): positive correlation with a decrease in the accumulation of CAP

SMILES: O=C(Nc1ccccc1Br)N[C@@H]1CCN(c2ccc(C(F)(F)F)cn2)C1 [SB-705498]
accumulation of CAP after inhibitor added at 60 min [3]: decreased immediately
